Laboratory results reported in US8349553B2, “Jasmonate based assays for identifying compounds that selectively inhibit mitochondrial bound hexokinases” (Ramot at Tel Aviv University Ltd., priority 2007, dated 2013).

What was measured:
[1] = system: rabbit immunoglobulin G (Rb IgG); assay: Surface plasmon resonance, irrelevant protein control; format: binding; details: 6 mM and 3 mM
Method: SPR using ProteOn-EP5 (Bio-Rad, Hercules, Calif., USA) system has been applied to study the direct interaction of methyl jasmonate with hexokinase. This system allowed measuring ligand-analyte interactions in a 6×6 format in real time. Purified rat brain HKI and rabbit immunoglobulin G (Rb IgG; ligands) were diluted in 10 mM Na acetate pH 4 and 4.5, respectively, and coupled to a GLM sensor surface activated with 37.5 mg/ml N-Ethyl-N′-(3′ dimethylaminopropyl) carbodiimide hydrochloride and 7.5 mg/ml N-hydroxysuccinimide. HKI and IgG were added to saturate the chip at 100 μg/ml. Remaining reactive groups on the chip were then inactivated with 1 M ethanolamine pH 8.5. […] Methyl jasmonate and jasmonic acid (analytes) were diluted in running buffer (PBS X 1 with 0.005% Tween and 5% DMSO) and injected onto the sensor chip at varying concentrations. All experiments were performed at flow rate of 50 μl/min, at 25° C.

[2] = target: T1, hexokinase-I-Voltage dependent anion channel interactions (Rattus norvegicus, UniProt P05708); assay: Voltage-dependent anion channel recording in planar lipid bilayer after addition of hexokinase-I; format: biochemical; details: 3 mM, HK-I 20 mU/ml, recorded after 10 minutes
T1 construct: from tissue; host or cells: HK-I from rat brain mitochondria; VDAC from rat liver mitochondria
Method: Currents were measured with respect to the trans side of the membrane (ground).

[3] = system: mitochondria-bound hexokinase (mitochondrial fraction of Molt-4 cells); assay: Hexokinase detachment assay, mitochondrial fraction of Molt-4 cells; format: biochemical, human; details: Molt-4 mitochondrial fraction; 30 minutes at 37° C.
Method: (§1) Mitochondrial fraction was prepared by mechanical lysis and differential centrifugation. All stages were performed on ice. Cells or extracted tissues were washed with PBS and disrupted by homogenization in extraction buffer (Sucrose 250 mM, HEPES-NaOH 10 mM, pH 7.2) freshly supplemented with 0.1 mM EDTA and Protease Inhibitors cocktail (Sigma). For each gram of cells or tissue, 4 volumes of extraction buffer were applied. The homogenate volume was doubled with the extraction buffer, and tissue and cell debris as well as nuclei were pelleted by centrifugation of 1,000 g for 10 minutes. The supernatant was further spun at 13,000 g for 10 minutes twice. Endoplasmic reticulum layer was removed. The pellet, designated as the mitochondrial fraction, was suspended in the appropriate buffer, depending on the assay for which the mitochondrial fraction was prepared. Mitochondrial fractions were used immediately or stored at −196° C. […] Activity of hexokinase in the supernatant (i.e., activity of the detached hexokinase) was determined spectrophotometrically at 340 nm. […] Mitochondrial fractions isolated from different cancer cells, namely Molt-4 cells, BCL-1 leukemic cells and B16 melanoma tumors were incubated for 30 minutes at 37° C., and the activity of unbound hexokinase was measured and compared to the activity of spontaneously (control) detached hexokinase. […]

[4] = system: hexokinase; assay: Hexokinase activity, agent added directly to the coupled assay mixture; format: biochemical; details: coupled pyruvate kinase/lactate dehydrogenase assay, 340 nm
[5] = system: HKI and HKII (mitochondrial fraction of BCL-1); assay: Western blot of supernatants with anti-HKI and anti-HKII, BCL-1 mitochondrial fraction; format: biochemical, murine; details: BCL-1 mitochondrial fraction supernatant
Method: For analysis of hexokinase levels, the experiments were performed similarly to hexokinase detachment assay described above, and unbound hexokinase in the supernatant fraction was extracted as described in Fingrut (2005). Samples were separated by sodium dodecylsulfate-polyacrylamide gel (7%) electrophoresis followed by immunoblotting. The blots were probed with specific anti-HKI or anti-HKII antibodies (1:300, Santa-Cruz Biotechnology, CA, USA). Hexokinase-antibody complexes were stained with HRP-conjugated antibody (1:10,000, Santa-Cruz Biotechnology, CA, USA). Enhanced chemiluminescence (ECL) reagent (Biological Industries, Beit Haemek, Israel) was added, and the blots were exposed to ECL film (Eastman Kodak, Rochester, N.Y., USA). Hexokinase detachment from mitochondrial fraction is not limited to CT-26 colon carcinoma. Mitochondrial fractions isolated from different cancer cells, namely Molt-4 cells, BCL-1 leukemic cells and B16 melanoma tumors were incubated for 30 minutes at 37° C., and the activity of unbound hexokinase was measured and compared to the activity of spontaneously (control) detached hexokinase. […] The supernatant of the experiments were separated on SDS-PAGE and probed with anti-HKI and anti-HKII antibodies.

[6] = system: mitochondria-bound hexokinase (mitochondrial fraction of BCL-1 leukemic cells); assay: Hexokinase detachment assay, mitochondrial fraction of BCL-1 leukemic cells; format: biochemical, murine; details: BCL-1 mitochondrial fraction; 30 minutes at 37° C.
Method: as §1

[7] = system: Molt-4 cells; assay: Trypan blue exclusion test, Molt-4; format: cell-based, human; details: 3 mM, 1 hour
Method: Cell death was determined by trypan blue exclusion. […] Alternatively, cytotoxicity was determined using hemacolor staining. […] In order to test the correlation between cellular ATP levels and the release of hexokinase from mitochondrial fraction different cancer cells, namely Molt-4 cells, BCL-1 leukemic cells and B16 melanoma tumors were exposed to various methyl jasmonate concentrations. […] CT26 and Molt-4 cells were then seeded in 24 well plates. CT26 cells were allowed to adhere over night. Cells were exposed to methyl jasmonate (MJ; 3 mM) for 1 hour. Trypan blue exclusion test was performed and cells were counted.

T1 sequence (P05708 whole entry): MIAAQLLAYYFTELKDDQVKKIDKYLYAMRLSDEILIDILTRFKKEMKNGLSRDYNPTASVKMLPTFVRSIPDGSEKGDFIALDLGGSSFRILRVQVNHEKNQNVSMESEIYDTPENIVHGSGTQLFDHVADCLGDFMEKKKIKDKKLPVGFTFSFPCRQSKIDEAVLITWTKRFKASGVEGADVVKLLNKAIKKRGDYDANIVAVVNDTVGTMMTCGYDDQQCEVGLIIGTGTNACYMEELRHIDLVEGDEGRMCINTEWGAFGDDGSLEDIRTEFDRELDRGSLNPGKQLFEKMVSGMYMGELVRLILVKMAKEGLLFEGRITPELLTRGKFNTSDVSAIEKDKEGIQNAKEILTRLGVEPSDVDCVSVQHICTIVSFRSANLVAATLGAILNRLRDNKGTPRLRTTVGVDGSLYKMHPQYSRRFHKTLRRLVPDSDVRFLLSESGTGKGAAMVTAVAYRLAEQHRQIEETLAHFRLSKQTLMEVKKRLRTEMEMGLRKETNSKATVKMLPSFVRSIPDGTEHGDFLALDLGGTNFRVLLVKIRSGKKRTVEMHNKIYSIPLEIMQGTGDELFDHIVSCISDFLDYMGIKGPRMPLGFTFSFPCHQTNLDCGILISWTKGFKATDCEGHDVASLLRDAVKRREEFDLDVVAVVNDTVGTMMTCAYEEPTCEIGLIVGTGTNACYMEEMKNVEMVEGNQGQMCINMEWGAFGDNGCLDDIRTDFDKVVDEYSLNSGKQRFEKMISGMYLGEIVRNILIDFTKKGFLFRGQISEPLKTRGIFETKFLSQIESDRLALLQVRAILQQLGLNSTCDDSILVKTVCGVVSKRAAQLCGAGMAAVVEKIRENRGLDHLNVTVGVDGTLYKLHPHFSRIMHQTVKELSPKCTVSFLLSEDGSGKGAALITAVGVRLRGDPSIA

binding to immobilized Rb IgG (SPR) [1]: binds to hexokinase but not to Rb IgG
Structure (SMILES): CC/C=C\CC1C(=O)CCC1CC(=O)OC (stereo not drawn) [methyl jasmonate]
effect on HK-I-induced low-conducting state of voltage-dependent anion channel ([2]; −20 mV): reversed by the addition of methyl jasmonate
effect on HK-I-closed voltage-dependent anion channel ([2]; −40 mV): led to re-opening of HK-I-closed channels
detachment of hexokinase (activity of unbound hexokinase compared to control) [3]: detached hexokinase from mitochondrial fraction isolated from the three different cancer cells
influence on hexokinase activity when added directly to the assay mixture [4]: neither methyl jasmonate nor jasmonic acid added directly to the assay mixture, influence hexokinase activity
detachment of hexokinase confirmed by immunoblot (anti-HKI, anti-HKII) [5]: detachment of hexokinase from mitochondrial fraction of the various cancer cells was further confirmed
detachment of hexokinase (activity of unbound hexokinase compared to control) [6]: detached hexokinase from mitochondrial fraction isolated from the three different cancer cells
sensitivity of Molt-4 relative to CT26 cells [7]: showed increased sensitivity with respect to CT26 tumor cells
live/dead cells by Trypan blue exclusion ([7]; Molt-4): still alive after 60 minutes
